Assay results published in ChEMBL document CHEMBL4828766 (J Med Chem, 2021).
Square brackets hold non-standard residues; d marks the D form. Peptide text beside a SMILES is read from it. dPhe(4-I) = N[C@H](Cc1ccc(I)cc1)C(=O)O; 2Nal = N[C@@H](Cc1ccc2ccccc2c1)C(=O)O; d2Nal = N[C@H](Cc1ccc2ccccc2c1)C(=O)O

Assays:
Assay type in all cases: functional, cell-based
[1] = biological target: T1, Melanocortin receptor 4 (Mus musculus, UniProt P56450); assay: Antagonist activity at mouse melanocortin receptor 4 expressed in HEK293 cells assessed as inhibition of NDP-MSH-induced cAMP accumulation incubated for 2 hrs by cAMP Alpha-screen assay based Schild analysis; conditions: for Kb: read-out: pA2 (converted)
[2] = biological target: Melanocortin receptor 5 (Mus musculus, UniProt P41149); assay: Agonist activity at mouse MC5R expressed in HEK293 cells assessed as induction of cAMP level at 100 uM incubated for 2 hr by alphaScreen assay
[3] = biological target: T2, Melanocortin receptor 3 (Mus musculus, UniProt P33033); assay: Agonist activity at mouse MC3R expressed in HEK293 cells assessed as induction of cAMP level incubated for 2 hr by alphaScreen assay
[4] = biological target: Melanocortin receptor 4 (Mus musculus) (UniProt P56450); assay: Agonist activity at mouse MC4R expressed in HEK293 cells assessed as induction of cAMP level at 100 uM incubated for 2 hr by alphaScreen assay relative to control
[5] = biological target: Melanocyte-stimulating hormone receptor (Mus musculus) (UniProt Q01727); assay: Agonist activity at mouse MC1R expressed in HEK293 cells assessed as induction of cAMP level at 100 uM incubated for 2 hr by alphaScreen assay relative to NDP-MSH
[6] = biological target: T2, Melanocortin receptor 3; assay: Antagonist activity at mouse melanocortin receptor 3 expressed in HEK293 cells assessed as inhibition of NDP-MSH-induced cAMP accumulation incubated for 2 hrs by cAMP Alpha-screen assay based Schild analysis; conditions: for Kb: read-out: pA2 (converted)
[7] = biological target: T1, Melanocortin receptor 4; assay: Agonist activity at mouse MC4R expressed in HEK293 cells assessed as induction of cAMP level incubated for 2 hr by alphaScreen assay
[8] = biological target: Melanocyte-stimulating hormone receptor (Mus musculus, UniProt Q01727); assay: Agonist activity at mouse MC1R expressed in HEK293 cells assessed as induction of cAMP level at 100 uM incubated for 2 hr by alphaScreen assay
[9] = biological target: Melanocortin receptor 3 (Mus musculus) (UniProt P33033); assay: Agonist activity at mouse MC3R expressed in HEK293 cells assessed as induction of cAMP level at 100 uM incubated for 2 hr by alphaScreen assay relative to control
Melanocortin receptor 3 (Mus musculus), sequence (P33033 whole entry): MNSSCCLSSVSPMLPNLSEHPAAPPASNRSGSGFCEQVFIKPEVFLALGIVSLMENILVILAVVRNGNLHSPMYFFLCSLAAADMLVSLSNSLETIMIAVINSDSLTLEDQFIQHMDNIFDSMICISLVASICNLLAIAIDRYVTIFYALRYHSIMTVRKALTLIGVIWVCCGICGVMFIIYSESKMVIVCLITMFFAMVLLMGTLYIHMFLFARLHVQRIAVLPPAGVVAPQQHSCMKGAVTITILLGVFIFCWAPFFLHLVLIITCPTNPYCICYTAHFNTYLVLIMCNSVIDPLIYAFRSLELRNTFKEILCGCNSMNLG

T2 sequence (P33033 whole entry): as above
Melanocortin receptor 4 (Mus musculus), sequence (P56450 whole entry): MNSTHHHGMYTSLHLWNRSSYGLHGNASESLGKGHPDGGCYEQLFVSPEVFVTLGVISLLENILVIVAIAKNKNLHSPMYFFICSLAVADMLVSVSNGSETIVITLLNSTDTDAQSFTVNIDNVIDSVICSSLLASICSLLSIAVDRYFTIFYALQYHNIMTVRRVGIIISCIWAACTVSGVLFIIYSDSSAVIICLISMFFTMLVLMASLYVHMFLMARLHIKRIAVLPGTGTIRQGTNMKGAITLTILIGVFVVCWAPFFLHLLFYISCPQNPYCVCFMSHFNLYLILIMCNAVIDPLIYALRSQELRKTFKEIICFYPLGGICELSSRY
T1 sequence (P56450 whole entry): as above
Melanocortin receptor 5, sequence (P41149 whole entry): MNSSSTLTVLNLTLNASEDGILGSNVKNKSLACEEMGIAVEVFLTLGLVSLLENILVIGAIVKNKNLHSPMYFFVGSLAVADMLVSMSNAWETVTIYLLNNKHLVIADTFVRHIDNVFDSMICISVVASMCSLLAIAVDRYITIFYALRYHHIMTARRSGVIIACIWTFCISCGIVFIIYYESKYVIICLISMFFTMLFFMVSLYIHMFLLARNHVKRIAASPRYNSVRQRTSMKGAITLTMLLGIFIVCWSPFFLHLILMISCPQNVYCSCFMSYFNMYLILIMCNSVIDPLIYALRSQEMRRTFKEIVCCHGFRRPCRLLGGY
Melanocyte-stimulating hormone receptor, sequence (Q01727 whole entry): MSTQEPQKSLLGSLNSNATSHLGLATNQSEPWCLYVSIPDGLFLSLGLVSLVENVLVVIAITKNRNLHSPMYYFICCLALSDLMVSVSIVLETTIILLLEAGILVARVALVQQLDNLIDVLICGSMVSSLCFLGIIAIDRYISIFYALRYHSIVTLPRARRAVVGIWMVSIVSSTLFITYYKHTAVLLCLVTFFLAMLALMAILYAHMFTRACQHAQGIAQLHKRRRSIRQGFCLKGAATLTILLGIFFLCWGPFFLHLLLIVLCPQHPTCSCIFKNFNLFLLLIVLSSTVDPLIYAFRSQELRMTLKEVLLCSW
Melanocyte-stimulating hormone receptor (Mus musculus), sequence (Q01727 whole entry, looked up): as the sequence (Q01727 whole entry) above

| Structure (SMILES) | Kb [1] [nM] | EC50 [2] [nM] | EC50 [3] [nM] | Activity [4] [%] | Activity [5] [%] | Kb [6] [nM] | EC50 [7] [nM] | EC50 [8] [nM] | Ki [1] [nM] | Ki [6] [nM] | Activity ([5]; filed as agonist) [%] | Activity [9] [%] | Activity ([9]; filed as agonist) [%] |
| --- | --- | --- | --- | --- | --- | --- | --- | --- | --- | --- | --- | --- | --- |
| CC(=O)N[C@H](Cc1ccc2ccccc2c1)C(=O)N[C@H](Cc1ccc2ccccc2c1)C(=O)N[C@@H](Cc1c[nH]c2ccccc12)C(=O)N[C@H](CCCCN)C(N)=O (Ac-[d2Nal][d2Nal]W[dK]-NH2) | 200 | > 100000 | > 100000 | 30 | 25 | 1580 |  |  |  |  |  |  |  |
| CC(=O)N[C@H](Cc1ccc(I)cc1)C(=O)N[C@H](Cc1ccc2ccccc2c1)C(=O)N[C@H](Cc1ccc(I)cc1)C(=O)N[C@H](CCCCN)C(N)=O | > 3160 | > 100000 | > 100000 |  |  | > 3160 | > 100000 | > 100000 |  |  |  |  |  |
| CC(=O)N[C@H](Cc1ccc2ccccc2c1)C(=O)N[C@H](Cc1ccc2ccccc2c1)C(=O)N[C@H](Cc1ccc(I)cc1)C(=O)N[C@@H](CCCNC(=N)N)C(N)=O (Ac-[d2Nal][d2Nal][dPhe(4-I)]R-NH2) | > 3160 |  | > 100000 |  | 25 | > 3160 | > 100000 |  |  |  |  |  |  |
| CC(=O)N[C@H](Cc1ccc2ccccc2c1)C(=O)N[C@@H](CCCNC(=N)N)C(=O)N[C@@H](Cc1c[nH]c2ccccc12)C(=O)N[C@H](CCCCN)C(N)=O (Ac-[d2Nal]RW[dK]-NH2) | 20 | > 100000 | > 100000 |  |  | 3160 | > 100000 | > 100000 |  |  |  |  |  |
| CC(=O)N[C@H](Cc1ccc(I)cc1)C(=O)N[C@@H](CCCNC(=N)N)C(=O)N[C@H](Cc1ccc(I)cc1)C(=O)N[C@H](CCCCN)C(N)=O (Ac-[dPhe(4-I)]R[dPhe(4-I)][dK]-NH2) | 3.16 | > 100000 | > 100000 |  |  | 31.6 | > 100000 | 35 | 3.2 | 32 |  |  |  |
| CC(=O)N[C@H](Cc1ccc(I)cc1)C(=O)N[C@H](Cc1ccc2ccccc2c1)C(=O)N[C@H](Cc1ccc2ccccc2c1)C(=O)N[C@H](CCCCN)C(N)=O (Ac-[dPhe(4-I)][d2Nal][d2Nal][dK]-NH2) | 501 | > 100000 | > 100000 |  |  | > 3160 | > 100000 |  |  |  |  |  |  |
| CC(=O)N[C@H](Cc1ccc2ccccc2c1)C(=O)N[C@@H](CCCNC(=N)N)C(=O)N[C@@H](Cc1c[nH]c2ccccc12)C(=O)N[C@@H](CCCNC(=N)N)C(N)=O (Ac-[d2Nal]RWR-NH2) | 5.01 | > 100000 | > 100000 | 20 |  | 158 |  |  |  |  |  |  |  |
| CC(=O)N[C@H](Cc1ccc2ccccc2c1)C(=O)N[C@H](Cc1ccc2ccccc2c1)C(=O)N[C@H](Cc1ccc2ccccc2c1)C(=O)N[C@H](CCCCN)C(N)=O (Ac-[d2Nal][d2Nal][d2Nal][dK]-NH2) | > 3160 | > 100000 | > 100000 |  |  | > 3160 | > 100000 |  |  |  | 55 |  |  |
| CC(=O)N[C@H](Cc1ccc2ccccc2c1)C(=O)N[C@H](Cc1ccc2ccccc2c1)C(=O)N[C@H](Cc1ccc2ccccc2c1)C(=O)N[C@@H](CCCNC(=N)N)C(N)=O | > 3160 |  |  | 25 | 30 | > 3160 |  |  |  |  |  | 35 |  |
| CC(=O)N[C@H](Cc1ccc(I)cc1)C(=O)N[C@H](Cc1ccc2ccccc2c1)C(=O)N[C@@H](Cc1c[nH]c2ccccc12)C(=O)N[C@H](CCCCN)C(N)=O (Ac-[dPhe(4-I)][d2Nal]W[dK]-NH2) | 251 | > 100000 | > 100000 |  |  | 2000 | > 100000 |  | 250 | 2000 | 65 |  |  |
| CC(=O)N[C@H](Cc1ccc2ccccc2c1)C(=O)N[C@@H](CCCNC(=N)N)C(=O)N[C@@H](Cc1ccc2ccccc2c1)C(=O)N[C@@H](CCCNC(=N)N)C(N)=O (Ac-[d2Nal]R[2Nal]R-NH2) | 1.58 | > 100000 | > 100000 | 30 |  | 100 |  | > 100000 |  |  |  |  |  |
| CC(=O)N[C@H](Cc1ccc2ccccc2c1)C(=O)N[C@H](Cc1ccc2ccccc2c1)C(=O)N[C@H](Cc1ccc(I)cc1)C(=O)N[C@H](CCCCN)C(N)=O (Ac-[d2Nal][d2Nal][dPhe(4-I)][dK]-NH2) | > 3160 | > 100000 | > 100000 |  | 20 | > 3160 | > 100000 |  |  |  |  |  |  |
| CC(=O)N[C@H](Cc1ccc(I)cc1)C(=O)N[C@H](Cc1ccc2ccccc2c1)C(=O)N[C@@H](Cc1c[nH]c2ccccc12)C(=O)N[C@@H](CCCNC(=N)N)C(N)=O | 2510 | > 100000 | > 100000 |  |  | > 3160 | > 100000 | > 100000 | 2500 |  |  |  |  |
| CC(=O)N[C@H](Cc1ccc(I)cc1)C(=O)N[C@H](Cc1ccc2ccccc2c1)C(=O)N[C@@H](Cc1ccc2ccccc2c1)C(=O)N[C@@H](CCCNC(=N)N)C(N)=O (Ac-[dPhe(4-I)][d2Nal][2Nal]R-NH2) | 1580 | 800 | > 100000 |  |  | > 3160 | > 100000 |  | 1600 |  |  |  |  |
| CC(=O)N[C@H](Cc1ccc2ccccc2c1)C(=O)N[C@@H](CCCNC(=N)N)C(=O)N[C@H](Cc1ccc(I)cc1)C(=O)N[C@H](CCCCN)C(N)=O | 3.16 | > 100000 | > 100000 |  |  | 126 | > 100000 | 220 |  |  |  |  |  |
| CC(=O)N[C@H](Cc1ccc(I)cc1)C(=O)N[C@@H](CCCNC(=N)N)C(=O)N[C@@H](Cc1ccc2ccccc2c1)C(=O)N[C@H](Cc1ccc2ccccc2c1)C(N)=O (Ac-[dPhe(4-I)]R[2Nal][d2Nal]-NH2) | 200 | > 100000 | > 100000 |  |  | > 3160 | > 100000 |  | 200 |  | 55 |  |  |
| CC(=O)N[C@H](Cc1ccc2ccccc2c1)C(=O)N[C@H](Cc1ccc2ccccc2c1)C(=O)N[C@@H](Cc1ccc2ccccc2c1)C(=O)N[C@H](CCCCN)C(N)=O (Ac-[d2Nal][d2Nal][2Nal][dK]-NH2) | > 3160 | > 100000 | > 100000 |  |  | > 3160 | > 100000 |  |  |  | 45 |  |  |
| CC(=O)N[C@H](Cc1ccc(I)cc1)C(=O)N[C@@H](CCCNC(=N)N)C(=O)N[C@H](Cc1ccc(I)cc1)C(=O)N[C@@H](CCCNC(=N)N)C(N)=O (Ac-[dPhe(4-I)]R[dPhe(4-I)]R-NH2) | 3.16 | > 100000 | > 100000 |  |  | 39.8 | > 100000 | 7 | 3.2 | 40 |  |  |  |
| CC(=O)N[C@H](Cc1ccc2ccccc2c1)C(=O)N[C@@H](CCCNC(=N)N)C(=O)N[C@@H](Cc1c[nH]c2ccccc12)C(=O)N[C@H](Cc1ccc2ccccc2c1)C(N)=O (Ac-[d2Nal]RW[d2Nal]-NH2) | 100 | > 100000 |  | 30 |  | 2000 |  |  |  |  |  |  | 40 |
| CC(=O)N[C@H](Cc1ccc(I)cc1)C(=O)N[C@H](Cc1ccc2ccccc2c1)C(=O)N[C@H](Cc1ccc(I)cc1)C(=O)N[C@@H](CCCNC(=N)N)C(N)=O (Ac-[dPhe(4-I)][d2Nal][dPhe(4-I)]R-NH2) | > 3160 |  | > 100000 |  |  | > 3160 | > 100000 |  |  |  | 40 |  |  |
| CC(=O)N[C@H](Cc1ccc2ccccc2c1)C(=O)N[C@@H](CCCNC(=N)N)C(=O)N[C@H](Cc1ccc(I)cc1)C(=O)N[C@@H](CCCNC(=N)N)C(N)=O (Ac-[d2Nal]R[dPhe(4-I)]R-NH2) | 2.51 | > 100000 | > 100000 |  |  | 79.4 | > 100000 | 40 |  |  |  |  |  |
| CC(=O)N[C@H](Cc1ccc(I)cc1)C(=O)N[C@@H](CCCNC(=N)N)C(=O)N[C@@H](Cc1c[nH]c2ccccc12)C(=O)N[C@H](Cc1ccc2ccccc2c1)C(N)=O (Ac-[dPhe(4-I)]RW[d2Nal]-NH2) | 25.1 | > 100000 |  | 35 |  | 1000 |  |  | 25 | 1000 | 45 | 25 |  |
| CC(=O)N[C@H](Cc1ccc(I)cc1)C(=O)N[C@@H](CCCNC(=N)N)C(=O)N[C@@H](Cc1c[nH]c2ccccc12)C(=O)N[C@H](CCCCN)C(N)=O (Ac-[dPhe(4-I)]RW[dK]-NH2) | 25.1 | > 100000 | > 100000 |  |  | 631 | > 100000 | > 100000 | 25 | 630 |  |  |  |
| CC(=O)N[C@H](Cc1ccc(I)cc1)C(=O)N[C@H](Cc1ccc2ccccc2c1)C(=O)N[C@H](Cc1ccc2ccccc2c1)C(=O)N[C@@H](CCCNC(=N)N)C(N)=O (Ac-[dPhe(4-I)][d2Nal][d2Nal]R-NH2) | > 3160 | 230 | > 100000 |  |  | > 3160 | > 100000 | > 100000 |  |  |  |  |  |
